Paper PMC7916669, “Chemical Constituent Profiling of Phyllostachys heterocycla var. Pubescens with Selective Cytotoxic Polar Fraction through EGFR Inhibition in HepG2 Cells” (Molecules, 2021)

Biological target: T1, EGFR (epidermal growth factor receptor tyrosine kinase) (Homo sapiens, UniProt P00533)
T1 construct: EGFR cytoplasmic domain (EGFR-CD, amino acids 645–1186), (His)6-tagged
Experiment: EGFR-TK autophosphorylation assay, DELFIA/time-resolved fluorometry, recombinant enzyme
Format: biochemical
Settings: read-out: In Vitro EGFR Activity(nM) *

T1 sequence (P00533 669-1210): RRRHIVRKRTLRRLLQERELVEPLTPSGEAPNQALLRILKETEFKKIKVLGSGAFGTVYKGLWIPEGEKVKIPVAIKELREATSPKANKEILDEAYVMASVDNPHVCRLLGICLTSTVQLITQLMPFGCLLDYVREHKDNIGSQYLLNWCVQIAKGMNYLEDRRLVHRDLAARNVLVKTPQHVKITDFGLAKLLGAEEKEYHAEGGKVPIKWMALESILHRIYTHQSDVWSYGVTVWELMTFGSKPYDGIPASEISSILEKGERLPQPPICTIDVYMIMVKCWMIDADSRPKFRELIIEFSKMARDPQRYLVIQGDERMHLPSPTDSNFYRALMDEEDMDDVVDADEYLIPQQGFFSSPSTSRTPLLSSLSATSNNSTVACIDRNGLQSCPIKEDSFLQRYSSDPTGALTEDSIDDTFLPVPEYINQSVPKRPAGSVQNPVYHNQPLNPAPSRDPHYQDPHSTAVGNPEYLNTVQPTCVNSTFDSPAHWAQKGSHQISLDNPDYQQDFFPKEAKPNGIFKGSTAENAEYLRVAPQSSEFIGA

- IC50: 98.6 nM
Compound: COC(=O)/C=C/c1ccc(O)cc1OC [compound 1, 7-hydroxy, 5-methoxy, methyl cinnamate]
